In patent US10940188B2, “Compounds and methods for treatment and prevention of Flavivirus infection” (priority 2016, dated 2021):
Where a name gives a salt, the structure may show the parent alone. Read-outs that look alike come from different tables or passages of the source. Numbered stars: 1 amine (or outer) side, 2 acyl side, 3 side chain; on linkers, the order of the positions; unused ones are H or OH. Bridge positions count the residues as written; N and C are the ends. Square brackets hold non-standard residues; d marks the D form. Peptide text beside a SMILES is read from it. I, II: the chains in the order shown. Actinocin(9to1) = Cc1c2oc3c(C)ccc(C(=O)[*:1])c3nc-2c(C(=O)[*:2])c(N)c1=O; NMeV = CN[C@H](C(=O)O)C(C)C; Sar = CNCC(=O)O

Tests used:
HEK293 cells = assay: Toxicity IC50 (cell-killing activity) of the NS1 TR-FRET screen; type: cell-based, human
ZIKV MR766 NS1 = assay: microbe, parasite or virus in culture; type: cell-based, Zika virus; settings: read-out: NS1-IC50
Description: A one-step NS1 TR-FRET (Time-resolved fluorescence resonance energy transfer) assay for a screen of anti-ZIKV compounds was carried out. Human embryonic kidney cell line HEK293 cells were seeded into 384-well plates and infected with ZIKV MR766 at a MOI of 0.5 for 2 days. The FRET assay was performed with two clones of anti-NS1 antibody (ab) differentially labelled with donor and acceptor fluorophores.

[1] = cell-killing activity, read-out: Tox IC50
[2] = HEK293 cells, ZIKV MR766, MOI 0.5, 2 days, virus-inhibiting activity
[3] = Homo sapiens, HEK293, cell-killing activity, read-out: Tox IC50

Row | Compound | IC50 (ZIKV MR766 NS1; [2]) [nM] | Tox IC50 (HEK293 cells; cell-killing activity) | IC50 (ZIKV MR766 NS1; Zika virus, HEK293, 48 h) [nM] | other results
1 | CN[C@@H]1C[C@H]2O[C@@](C)([C@@H]1OC)n1c3ccccc3c3c4c(c5c6ccccc6n2c5c31)C(=O)N[C@H]4O [7-Hydroxystaurosporine] | 760 | – | – | IC50 (HEK293 cells; [1]): 102000 nM
2 | CC[C@@]1(O)C(=O)OCc2c1cc1n(c2=O)Cc2cc3cc(O)ccc3nc2-1 [10-hydroxycamptothecin] | 46.6 | No | – | –
3 | CC[C@@]1(O)C(=O)OCc2c1cc1n(c2=O)Cc2cc3ccccc3nc2-1 [(S)-(+)-Camptothecin] | 26.4 | No | – | –
4 | CC[C@H](CC#N)OC(=O)N[C@@H](C)c1cccc(NC(=O)Nc2ccc(-c3cnco3)c(OC)c2)c1 [AVN-944] | – | – | 136 | IC50 (HEK293 cells; Homo sapiens, HEK293, read-out: Tox IC50): 20000 nM
5 | NC(=O)Nc1cc(-c2cccc(F)c2)sc1C(=O)N[C@H]1CCCNC1 [AZD-7762] | – | No | 366 | –
6 | Cc1c2oc3c(C)ccc(C(=O)N[C@@H]4C(=O)N[C@H](C(C)C)C(=O)N5CCC[C@H]5C(=O)N(C)CC(=O)N(C)[C@@H](C(C)C)C(=O)O[C@@H]4C)c3nc-2c(C(=O)N[C@@H]2C(=O)N[C@H](C(C)C)C(=O)N3CCC[C@H]3C(=O)N(C)CC(=O)N(C)[C@@H](C(C)C)C(=O)O[C@@H]2C)c(N)c1=O [Actinomycin D] (I: T[dV]P[Sar][NMeV] / II: T[dV]P[Sar][NMeV]; ester I:1-I:C, II:1-II:C; linker I:N-II:N via Actinocin(9to1)) | 352 | No | – | –
7 | CC[C@@H]1C(=O)N(C)c2cnc(Nc3ccc(C(=O)NC4CCN(C)CC4)cc3OC)nc2N1C1CCCC1 [BI-2536] | – | No | – | –
8 | COC(=O)[C@]12CCC(C)(C)C[C@H]1[C@H]1C(=O)C=C3[C@@]4(C)C=C(C#N)C(=O)C(C)(C)[C@@H]4CC[C@@]3(C)[C@]1(C)CC2 [Bardoxolone methyl] | – | – | 282 | IC50 (HEK293 cells; [3]): 2680 nM
9 | OCCCNc1cc(-c2ccnc(Nc3cccc(Cl)c3)n2)ccn1 [CGP-60474] | 794 | – | – | IC50 (HEK293 cells; [1]): 60000 nM
10 | O=c1[nH]c2ccc(Cl)cc2c(N[C@@H]2CN3CCC2CC3)c1-c1nc2ccccc2[nH]1 [CHIR-124] | 405 | – | – | IC50 (HEK293 cells; [1]): 3250 nM
11 | C/C=C(\C)C(=O)N[C@@H](c1ccccc1)[C@@H](O)C(=O)O[C@H]1C[C@@]2(O)[C@@H](OC(=O)c3ccccc3)[C@@H]3[C@]4(OC(C)=O)CO[C@@H]4C[C@H](O)[C@@]3(C)C(=O)[C@H](OC(C)=O)C(=C1C)C2(C)C [Cephalomannine] | – | No | 221 | –
12 | C[C@H]1CCC/C=C/[C@@H]2C[C@H](O)C[C@H]2[C@H](O)/C=C/C(=O)O1 [Cyanein] | 432 | No | – | –
13 | C[C@@H]1C[C@@H]([C@H](O)CC2CC(=O)NC(=O)C2)C(=O)[C@@H](C)C1 [Cycloheximide] | – | No | 287 | –
14 | COc1cccc2c1C(=O)c1c(O)c3c(c(O)c1C2=O)C[C@@](O)(C(C)=O)C[C@@H]3O[C@H]1C[C@H](N)[C@H](O)[C@H](C)O1 [Daunorubicin] | – | No | 536 | –
15 | CC(C)C[C@H](NC(=O)[C@@H](NC(=O)c1cccc(-c2ccccc2)n1)[C@@H](C)O)B(O)O [Delanzomib] | – | – | 58.5 | IC50 (HEK293 cells; [3]): 300 nM
16 | C[C@H]1O[C@@H](O[C@H]2[C@@H](O)C[C@H](O[C@H]3[C@@H](O)C[C@H](O[C@H]4CC[C@@]5(C)[C@H](CC[C@@H]6[C@@H]5C[C@@H](O)[C@]5(C)[C@@H](C7=CC(=O)OC7)CC[C@]65O)C4)O[C@@H]3C)O[C@@H]2C)C[C@H](O)[C@@H]1O [Digoxin] | – | – | 152 | IC50 (HEK293 cells; [3]): 60000 nM
17 | CS[C@H]1SC[C@H]2C(=O)N(C)[C@@H](C(C)C)C(=O)OC[C@@H](NC(=O)c3cnc4ccccc4n3)C(=O)N[C@@H](C)C(=O)N(C)[C@@H]1C(=O)N(C)[C@@H](C(C)C)C(=O)OC[C@@H](NC(=O)c1cnc3ccccc3n1)C(=O)N[C@@H](C)C(=O)N2C [Echinomycin] | – | No | 17.4 | –
18 | O=c1[nH]c(=O)n([C@H]2C[C@H](O)[C@@H](CO)O2)cc1F [Floxuridine] | – | – | 918 | IC50 (HEK293 cells; [3]): 60000 nM
19 | Cn1c2ccccc2c2c3c(c4c5ccccc5n(CCC#N)c4c21)CNC3=O [Go-6976] | – | – | 944 | IC50 (HEK293 cells; [3]): 20200 nM
20 | CC(=O)[C@]1(O)Cc2c(O)c3c(c(O)c2[C@@H](O[C@H]2C[C@H](N)[C@H](O)[C@H](C)O2)C1)C(=O)c1ccccc1C3=O [Idarubicin hydrochloride] | – | No | 168 | –
21 | Cc1ccc(C(=O)N(CCCN)[C@@H](c2nc3cc(Cl)ccc3c(=O)n2Cc2ccccc2)C(C)C)cc1 [Ispinesib] | – | – | 67.4 | IC50 (HEK293 cells; [3]): 37500 nM
22 | CC(C)C[C@H](NC(=O)CNC(=O)c1cc(Cl)ccc1Cl)B1OC(=O)C(CC(=O)O)(CC(=O)O)O1 [Ixazomib citrate] | – | – | 196 | IC50 (HEK293 cells; [3]): 1580 nM

Row | Compound | IC50 (ZIKV MR766 NS1; [2]) [nM] | Tox IC50 (HEK293 cells; cell-killing activity) | IC50 (ZIKV MR766 NS1; Zika virus, HEK293, 48 h) [nM] | other results
23 | O=C(Cc1ccc(-c2ccc(OCCN3CCOCC3)cc2)cn1)NCc1ccccc1 [KX-01] | 481 | – | – | IC50 (HEK293 cells; [1]): 19300 nM
24 | CCC[C@H](Nc1nc(-c2ccc(NC(=O)NCC)c(OC)c2)ncc1C)c1cccnc1 [Lexibulin hydrochloride] | – | No | 171 | –
25 | CC(C)C[C@H](NC(=O)CNC(=O)c1cc(Cl)ccc1Cl)B(O)O [MLN-2238] | – | – | 234 | IC50 (HEK293 cells; [3]): 2130 nM
26 | O=C1c2c(O)ccc(O)c2C(=O)c2c(NCCNCCO)ccc(NCCNCCO)c21 [Mitoxantrone] | – | – | 232 | IC50 (HEK293 cells; [3]): 50000 nM
27 | COc1c(C)c2c(c(O)c1C/C=C(\C)CCC(=O)OCCN1CCOCC1)C(=O)OC2 [Mycophenolate mofetil] | – | No | 529 | –
28 | COc1c(C)c2c(c(O)c1C/C=C(\C)CCC(=O)O)C(=O)OC2 [Mycophenolic acid] | – | No | 539 | –
29 | NCC(=O)Nc1ccc(-n2nc(C(F)(F)F)cc2-c2ccc3c(ccc4ccccc43)c2)cc1 [OSU-03012] | – | – | 992 | IC50 (HEK293 cells; [3]): 10000 nM
30 | CC(=O)O[C@H]1C(=O)[C@@]2(C)[C@H]([C@H](OC(=O)c3ccccc3)[C@]3(O)C[C@H](OC(=O)[C@H](O)[C@@H](NC(=O)c4ccccc4)c4ccccc4)C(C)=C1C3(C)C)[C@]1(OC(C)=O)CO[C@@H]1C[C@@H]2O [PACLITAXEL] | – | No | 89.4 | –
31 | C[C@]1(CO)CN(c2cc(C(=O)Nc3ccc4c(c3)-c3c(c(C(N)=O)nn3-c3ccc(F)cc3)CC4)c(Cl)cn2)C[C@@]1(C)CO [PF-184] | 388 | No | – | –
32 | Cn1cc(-c2[nH]c3cc(NC(=O)[C@H](N)C4CCCCC4)cc4c3c2C=NNC4=O)cn1 [PF-477736] | 489 | No | – | –
33 | Cc1ccc([N+](=O)[O-])cc1S(=O)(=O)N(C)/N=C/c1cnc2ccc(Br)cn12 [PIK-75] | 616 | No | – | –
34 | CC(C)c1nn(-c2c(Cl)cccc2Cl)c2nc(Cc3ccc(OCCO)cc3)[nH]c(=O)c12 [RGB-286147] | 268 | No | – | –
35 | CCc1c2c(nc3ccc(O)cc13)-c1cc3c(c(=O)n1C2)COC(=O)[C@]3(O)CC [SN-38] | 11.3 | No | – | –
36 | C/C=C(/C)C(=O)O[C@H]1C(C)=C2[C@H]([C@@H]1OC(=O)CCCCCCC)[C@@](C)(OC(C)=O)C[C@H](OC(=O)CCC)[C@@]1(O)[C@H]2OC(=O)[C@@]1(C)O [Thapsigargin] | – | – | 171 | IC50 (HEK293 cells; [3]): 40000 nM
37 | CC[C@@]1(O)C(=O)OCc2c1cc1n(c2=O)Cc2cc3c(CN(C)C)c(O)ccc3nc2-1 [Topotecan hydrochloride] | – | No | 51.4 | –
38 | Nc1ccc(-c2ccc3ncc4ccc(=O)n(-c5cccc(C(F)(F)F)c5)c4c3c2)cn1 [Torin-2] | 724 | No | – | –
39 | CC(C)[C@]12O[C@H]1[C@@H]1O[C@]13[C@]1(O[C@H]1C[C@H]1C4=C(CC[C@@]13C)C(=O)OC4)[C@@H]2O [Triptolide] | – | No | 465 | –
40 | CC[C@]1(O)C[C@H]2CN(CCc3c([nH]c4ccccc34)[C@@](C(=O)OC)(c3cc4c(cc3OC)N(C=O)[C@H]3[C@@](O)(C(=O)OC)[C@H](OC(C)=O)[C@]5(CC)C=CCN6CC[C@]43[C@@H]65)C2)C1 [Vincristine sulfate] | – | No | 156 | –
41 | CC[C@]1(O)C[C@@H]2CN(CCc3c([nH]c4ccccc34)[C@@](C(=O)OC)(c3cc4c(cc3OC)N(C)[C@H]3[C@@](O)(C(N)=O)[C@H](O)[C@]5(CC)C=CCN6CC[C@]43[C@@H]65)C2)C1 [Vindesine sulfate salt] | – | No | 664 | –
42 | CCC1=C[C@@H]2CN(C1)Cc1c([nH]c3ccccc13)[C@@](C(=O)OC)(c1cc3c(cc1OC)N(C)[C@H]1[C@@](O)(C(=O)OC)[C@H](OC(C)=O)[C@]4(CC)C=CCN5CC[C@]31[C@@H]54)C2 [Vinorelbine tartrate] | – | No | 270 | –
43 | CC[C@@H]1C(=O)N(C)c2cnc(Nc3ccc(C(=O)N[C@H]4CC[C@H](N5CCN(CC6CC6)CC5)CC4)cc3OC)nc2N1C(C)C [Volasertib] | – | No | 64.8 | –
